In one assay the target is GABA receptor. Put plainly: In vitro activation of GABA binding ([3H]GABA, Triton X-100 treated membrane protein). The note with it: average of one or more tests, read-out: SC50 GABA (nanomolar concentration producing a 50% increase in binding). The method, then: (§1) The novel compounds of this invention were examined for their in vitro ability to activate GABA and benzodiazepine (BZ) binding. To measure the effect of a compound on GABA binding, Triton X-100 (octylphenoxy polyethoxyethanol, Rohm and Haas Co.) treated membrane protein was incubated in the presence of the compound and [^3 H]GABA as detailed by Horng and Wong, J. Neurochemistry, 32 (5), 1379 (1979). To examine BZ binding, H-flunirazepam and the compounds were incubated with native membrane protein as reported by Wong, et al, Brain Res. Bull., 5 (Suppl. 2), 853 (1980). The results in Table 1 are the nanomolar concentrations of compounds (by Example No.) which produced a 50 percent increase (SC50) in GABA or BZ binding. Each result is the average of one or more tests.

In the next assay the target is benzodiazepine receptor. Kind of assay: In vitro activation of benzodiazepine (BZ) binding (flunirazepam, native membrane protein). Conditions: average of one or more tests, read-out: SC50 BZ (nanomolar concentration producing a 50% increase in binding). The method, then: as §1

Structures are written as SMILES. Structures can show the parent of a compound that is named as a salt.

As to `Cc1ccc(-c2nnc(N3CCOCC3)nc2-c2ccc(C)cc2)cc1` [Example 22, 3-morpholino-5,6-bis(4-methylphenyl)-1,2,4-triazine], the EC50 at GABA receptor stood at 875 nM; at benzodiazepine receptor it was 1140 nM.

For `CC(=O)OC1CCN(c2nnc(-c3ccc(C)cc3)c(-c3ccc(C)cc3)n2)C1` (stereo not shown) [Example 19, 1-[5,6-bis(4-methylphenyl)-1,2,4-triazin-3-yl]-3-pyrrolidinol, acetate (ester)], the EC50 on GABA receptor came to 43 nM; at benzodiazepine receptor, 60 nM. The corresponding values for `Cc1ccc(-c2nnc(N3CCC(OC=O)CC3)nc2-c2ccc(C)cc2)cc1` [Example 34, 1-[5,6-bis(4-methylphenyl)-1,2,4-triazin-3-yl]-4-piperidinol, formate (ester)] are 13 nM and 10 nM. As for `Cc1ccc(-c2nnc(N3CCC(CO)CC3)nc2-c2ccc(C)cc2)cc1` [Example 37, 1-[5,6-bis(4-methylphenyl)-1,2,4-triazin-3-yl]-4-piperidinemethanol], the EC50 on GABA receptor came to 160 nM; at benzodiazepine receptor, 520 nM. In the case of `CCOC1CCN(c2nnc(-c3ccc(C)cc3)c(-c3ccc(C)cc3)n2)CC1` [Example 27, 3-(4-ethoxy-1-piperidinyl)-5,6-bis(4-methylphenyl)-1,2,4-triazine], the EC50 at GABA receptor stood at 10 nM; on benzodiazepine receptor it was 21 nM. The corresponding values for `Cc1ccc(-c2nnc(N3CCC(OC(=O)C(C)(C)C)CC3)nc2-c2ccc(C)cc2)cc1` [Example 16, 1-[5,6-bis(4-methylphenyl)-1,2,4-triazin-3-yl]-4-piperidinol, pivaloate (ester)] are 110 nM and 14 nM. The matching figures for `Cc1ccccc1-c1nnc(N2CCC(O)CC2)nc1-c1ccccc1C` [Example 9, 1-[5,6-bis(2-methylphenyl)-1,2,4-triazin-3-yl]-4-piperidinol]: greater than 10000 nM and greater than 10000 nM. The matching figures for `CCc1ccc(-c2nnc(N3CCC(O)CC3)nc2-c2ccc(CC)cc2)cc1` [Example 8, 1-[5,6-bis(4-ethylphenyl)-1,2,4-triazin-3-yl]-4-piperidinol]: greater than 10000 nM and 3500 nM.

For the compound `Cc1ccc(-c2nnc(N3CCC(=NO)CC3)nc2-c2ccc(C)cc2)cc1` [Example 40, 1-[5,6-bis(4-methylphenyl)-1,2,4-triazin-3-yl]-4-piperidinone, oxime], the values for the EC50 on GABA receptor and on benzodiazepine receptor were 1300 nM and 1600 nM, respectively. The corresponding values for `CNC(=O)OC1CCN(c2nnc(-c3ccc(C)cc3)c(-c3ccc(C)cc3)n2)CC1` [Example 30, 1-[5,6-bis(4-methylphenyl)-1,2,4-triazin-3-yl]-4-piperidinol, N-methyl carbamate (ester)] are 100 nM and 24 nM. `Cc1cccc(-c2nnc(N3CCC(O)CC3)nc2-c2cccc(C)c2)c1` [Example 10, 1-[5,6-bis(3-methylphenyl)-1,2,4-triazin-3-yl]-4-piperidinol]: the EC50 at benzodiazepine receptor was greater than 10000 nM. Consider `Cc1ccc(-c2nnc(N3CCC(OC(=O)N(C)C)CC3)nc2-c2ccc(C)cc2)cc1` [Example 31], for which the EC50 on GABA receptor was found to be 1 nM; on benzodiazepine receptor, 3 nM. The matching figures for `Cc1ccc(-c2nnc(N3CCC(C(N)=O)CC3)nc2-c2ccc(C)cc2)cc1` [Example 36, 1-[5,6-bis(4-methylphenyl)-1,2,4-triazin-3-yl]-4-piperidinecarboxamide]: 800 nM and 8500 nM.

Source of the values: US4585861A, “1,2,4-triazine derivatives” (Eli Lilly and Company, priority 1985, dated 1986).
